Results: ChEMBL document CHEMBL3414489, “3,4-Diaza-bicyclo[4.1.0]hept-4-en-2-one phenoxypropylamine analogs of irdabisant (CEP-26401) as potent histamine-3 receptor inverse agonists with robust wake-promoting activity” (Eur J Med Chem, 2015)
Calls of active or inactive are those of the source. No cut-off for these calls is given here.

Assays:
[1] = target: T1, Histamine H3 receptor (Homo sapiens, UniProt Q9Y5N1); test: Binding affinity to human histamine H3 receptor
[2] = target: Histamine H3 receptor (Rattus norvegicus, UniProt Q9QYN8); test: Binding affinity to rat histamine H3 receptor
[3] = Half life in mouse liver microsomes; assay type: ADME
[4] = Half life in rat liver microsomes; assay type: ADME
[5] = Half life in dog liver microsomes; assay type: ADME, Canis lupus familiaris
[6] = Half life in monkey liver microsomes; assay type: ADME, Macaca mulatta; details: rhesus monkey
[7] = Half life in human liver microsomes; assay type: ADME
[8] = target: T2, Cytochrome P450 1A2 (Homo sapiens, UniProt P05177); test: Inhibition of CYP1A2 (unknown origin); assay type: ADME
T2 sequence (P05177 whole entry): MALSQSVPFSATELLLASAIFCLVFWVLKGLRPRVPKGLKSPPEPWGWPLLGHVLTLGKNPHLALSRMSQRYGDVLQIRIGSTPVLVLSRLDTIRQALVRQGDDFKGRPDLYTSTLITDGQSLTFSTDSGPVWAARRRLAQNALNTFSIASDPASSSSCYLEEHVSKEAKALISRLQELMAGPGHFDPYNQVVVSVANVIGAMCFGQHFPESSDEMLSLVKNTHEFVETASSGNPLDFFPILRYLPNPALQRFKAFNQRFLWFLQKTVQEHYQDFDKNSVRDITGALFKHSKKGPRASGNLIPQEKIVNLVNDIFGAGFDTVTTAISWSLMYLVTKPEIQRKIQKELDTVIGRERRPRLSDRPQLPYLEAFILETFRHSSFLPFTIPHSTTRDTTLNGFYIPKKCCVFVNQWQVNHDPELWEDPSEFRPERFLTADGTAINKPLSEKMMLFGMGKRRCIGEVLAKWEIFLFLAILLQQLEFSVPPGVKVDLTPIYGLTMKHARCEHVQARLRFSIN

[9] = Oral bioavailability in rat; assay type: ADME, organism-based; details: in vivo
[10] = Half life in iv dosed rat; assay type: ADME, organism-based; details: in vivo
[11] = Clearance in iv dosed rat; assay type: ADME, organism-based; details: in vivo
[12] = target: Histamine H1 receptor (Homo sapiens, UniProt P35367); test: Inhibition of human H1R
[13] = target: Histamine H2 receptor (Homo sapiens, UniProt P25021); test: Inhibition of human H2R
[14] = target: Histamine H4 receptor (Homo sapiens, UniProt Q9H3N8); test: Inhibition of human H4R
[15] = target: Sodium-dependent dopamine transporter (Homo sapiens, UniProt Q01959); test: Inhibition of DAT (unknown origin)
[16] = target: T3, Alpha-2C adrenergic receptor (Homo sapiens, UniProt P18825); test: Inhibition of alpha-2C adrenergic receptor (unknown origin)
T3 sequence (P18825 whole entry): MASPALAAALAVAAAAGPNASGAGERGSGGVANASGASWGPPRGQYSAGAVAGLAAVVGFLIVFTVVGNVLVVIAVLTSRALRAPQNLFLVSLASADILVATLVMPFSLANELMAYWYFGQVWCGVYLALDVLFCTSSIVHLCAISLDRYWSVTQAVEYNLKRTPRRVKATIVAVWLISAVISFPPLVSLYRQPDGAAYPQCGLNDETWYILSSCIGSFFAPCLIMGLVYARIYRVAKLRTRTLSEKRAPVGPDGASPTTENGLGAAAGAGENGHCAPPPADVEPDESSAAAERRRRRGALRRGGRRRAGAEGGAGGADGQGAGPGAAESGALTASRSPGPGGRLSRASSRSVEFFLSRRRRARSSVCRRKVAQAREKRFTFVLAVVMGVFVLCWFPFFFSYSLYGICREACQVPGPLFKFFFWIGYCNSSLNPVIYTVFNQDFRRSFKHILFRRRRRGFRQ

[17] = Aqueous solubility of the compound at pH 7.4; assay type: physicochemical
[18] = Aqueous solubility of the compound at pH 2; assay type: physicochemical
[19] = Permeability across human Caco2 cells; assay type: ADME, cell-based; details: Caco-2
[20] = Plasma protein binding in rat; assay type: ADME, cell-free; details: read-out: PPB (converted)
[21] = Plasma protein binding in dog; assay type: ADME, cell-free, Canis lupus familiaris; details: read-out: PPB (converted)
[22] = Plasma protein binding in human; assay type: ADME, cell-free; details: read-out: PPB (converted)
[23] = Half life in rat at 1 mg/kg, iv; assay type: ADME, organism-based; design: dose 1 mg/kg, route intravenous; details: in vivo
[24] = Volume of distribution at steady state in rat at 1 mg/kg, iv; assay type: ADME, organism-based; design: dose 1 mg/kg, route intravenous; details: in vivo, read-out: Vdss
[25] = Clearance in rat at 1 mg/kg, iv; assay type: ADME, organism-based; design: dose 1 mg/kg, route intravenous; details: in vivo
[26] = AUC (0 to t) in rat at 10 mg/kg, po; assay type: ADME, organism-based; design: dose 10 mg/kg, route oral; details: plasma
[27] = Cmax in rat at 10 mg/kg, po; assay type: ADME, organism-based; design: dose 10 mg/kg, route oral; details: in vivo
[28] = Oral bioavailability in rat at 10 mg/kg; assay type: ADME, organism-based; details: in vivo
[29] = Ratio of drug level in brain to plasma in rat at 10 mg/kg, ip after 2 hrs; assay type: ADME, organism-based; design: dose 10 mg/kg, route intraperitoneal; details: read-out: BPR
[30] = Half life in dog at 1 mg/kg, iv; assay type: ADME, organism-based, Canis lupus familiaris; design: dose 1 mg/kg, route intravenous; details: in vivo
[31] = Volume of distribution at steady state in dog at 1 mg/kg, iv; assay type: ADME, organism-based, Canis lupus familiaris; design: dose 1 mg/kg, route intravenous; details: in vivo, read-out: Vdss
[32] = tested on: Canis familiaris; test: AUC (0 to t) in dog at 3 mg/kg, po; assay type: ADME, organism-based, Canis lupus familiaris, Plasma; design: dose 3 mg/kg, route oral; details: in vivo
[33] = Cmax in dog at 3 mg/kg, po; assay type: ADME, organism-based, Canis lupus familiaris; design: dose 3 mg/kg, route oral; details: in vivo
[34] = tested on: Canis familiaris; test: Oral bioavailability in dog at 3 mg/kg; assay type: ADME, organism-based, Canis lupus familiaris; details: in vivo
[35] = Ratio of drug level in brain to plasma in dog at 10 mg/kg, ip after 2 hrs; assay type: ADME, organism-based, Canis lupus familiaris; design: dose 10 mg/kg, route intraperitoneal; details: read-out: BPR
[36] = Half life in monkey at 1 mg/kg, iv; assay type: ADME, organism-based, Macaca mulatta; design: dose 1 mg/kg, route intravenous; details: rhesus monkey, in vivo
[37] = Volume of distribution at steady state in monkey at 1 mg/kg, iv; assay type: ADME, organism-based, Macaca mulatta; design: dose 1 mg/kg, route intravenous; details: rhesus monkey, in vivo, read-out: Vdss
[38] = Clearance in monkey at 1 mg/kg, iv; assay type: ADME, organism-based, Macaca mulatta; design: dose 1 mg/kg, route intravenous; details: rhesus monkey, in vivo
[39] = AUC (0 to t) in monkey at 3 mg/kg, po; assay type: ADME, organism-based, Macaca mulatta; design: dose 3 mg/kg, route oral; details: rhesus monkey, plasma
[40] = Cmax in monkey at 3 mg/kg, po; assay type: ADME, organism-based, Macaca mulatta; design: dose 3 mg/kg, route oral; details: rhesus monkey, in vivo
[41] = Oral bioavailability in monkey at 3 mg/kg; assay type: ADME, organism-based, Macaca mulatta; details: rhesus monkey, in vivo
[42] = species: Rattus norvegicus; test: Inhibition of RAMH-induced dipsogenia in rat; assay type: functional
[43] = tested on: Rattus norvegicus; test: Wake promoting activity in ip dosed rat EEG/EMG model; assay type: functional, organism-based
[44] = tested on: Rattus norvegicus; test: Wake promoting activity in rat EEG/EMG model assessed as AUC of cumulative wake at 3 mg/kg, ip up to 4 hrs relative to vehicle-treated control; assay type: functional, organism-based; design: dose 3 mg/kg, time < 4 hr
[45] = tested on: Rattus norvegicus; test: Wake promoting activity in rat EEG/EMG model assessed as AUC of cumulative wake at 30 mg/kg, ip up to 5.5 hrs relative to vehicle-treated control; assay type: functional, organism-based; design: dose 30 mg/kg, time < 5.5 hr
[46] = tested on: Rattus norvegicus; test: Wake promoting activity in rat EEG/EMG model assessed as total time awake at 30 mg/kg, ip at 6.5 hrs relative to vehicle-treated control; assay type: functional; details: route intraperitoneal
[47] = tested on: Rattus norvegicus; test: Wake promoting activity in rat EEG/EMG model assessed as recovery from sleep at 3 to 30 mg/kg, ip after 22 hrs relative to vehicle-treated control; assay type: functional, organism-based
[48] = tested on: Rattus norvegicus; test: Toxicity in rat at 3 to 30 mg/kg, ip; assay type: organism-based; design: dose 3-30 mg/kg, route intraperitoneal; details: in vivo
[49] = tested on: Rattus norvegicus; test: Toxicity in po dosed rat; assay type: organism-based; details: in vivo
[50] = target: T1, Histamine H3 receptor; test: Inverse agonist activity at human H3R expressed in CHO cells assessed as inhibition of RAMH-induced [35S]GTPgammaS binding relative to control; assay type: functional, cell-based
[51] = species: Rattus norvegicus; details: 10 mg/kg
[52] = tested on: Rattus norvegicus; test: Wake promoting activity in rat EEG/EMG model assessed as cumulative wake time at 3 mg/kg, ip after 22 hrs relative to vehicle-treated control; assay type: functional; details: route intraperitoneal
[53] = tested on: Rattus norvegicus; test: Wake promoting activity in rat EEG/EMG model assessed as cumulative wake time at 10 mg/kg, ip after 22 hrs relative to vehicle-treated control; assay type: functional; details: route intraperitoneal
[54] = tested on: Rattus norvegicus; test: Wake promoting activity in rat EEG/EMG model assessed as cumulative wake time at 30 mg/kg, ip after 22 hrs relative to vehicle-treated control; assay type: functional; details: route intraperitoneal
[55] = species: Rattus norvegicus; details: 30 mg/kg

Sequence of Histamine H3 receptor (Rattus norvegicus, UniProt Q9QYN8) (Q9QYN8 whole entry): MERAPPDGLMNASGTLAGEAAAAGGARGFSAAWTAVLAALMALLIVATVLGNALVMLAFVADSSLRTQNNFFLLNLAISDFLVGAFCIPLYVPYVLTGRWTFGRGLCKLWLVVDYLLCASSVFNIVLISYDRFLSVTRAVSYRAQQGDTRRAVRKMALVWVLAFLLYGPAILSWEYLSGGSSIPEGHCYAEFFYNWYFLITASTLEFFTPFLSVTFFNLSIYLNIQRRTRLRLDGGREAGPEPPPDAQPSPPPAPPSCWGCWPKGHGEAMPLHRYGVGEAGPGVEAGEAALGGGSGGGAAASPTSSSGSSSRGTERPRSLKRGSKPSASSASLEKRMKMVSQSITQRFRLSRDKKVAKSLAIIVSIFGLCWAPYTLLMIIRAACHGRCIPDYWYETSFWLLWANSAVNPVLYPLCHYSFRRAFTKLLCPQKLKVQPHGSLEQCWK
T1 sequence (Q9Y5N1 whole entry): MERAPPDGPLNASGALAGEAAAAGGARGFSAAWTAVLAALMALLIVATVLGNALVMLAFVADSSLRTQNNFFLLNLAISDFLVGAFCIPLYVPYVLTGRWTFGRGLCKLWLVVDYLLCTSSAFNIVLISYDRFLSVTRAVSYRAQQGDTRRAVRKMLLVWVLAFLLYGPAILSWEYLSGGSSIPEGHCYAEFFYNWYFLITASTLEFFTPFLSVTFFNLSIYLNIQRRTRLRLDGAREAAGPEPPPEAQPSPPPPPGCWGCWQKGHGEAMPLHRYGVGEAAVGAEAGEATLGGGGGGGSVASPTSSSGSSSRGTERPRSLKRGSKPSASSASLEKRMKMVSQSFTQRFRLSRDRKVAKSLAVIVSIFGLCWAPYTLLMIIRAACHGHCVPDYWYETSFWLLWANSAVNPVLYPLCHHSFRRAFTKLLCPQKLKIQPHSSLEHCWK
Sequence of Histamine H1 receptor (P35367 whole entry): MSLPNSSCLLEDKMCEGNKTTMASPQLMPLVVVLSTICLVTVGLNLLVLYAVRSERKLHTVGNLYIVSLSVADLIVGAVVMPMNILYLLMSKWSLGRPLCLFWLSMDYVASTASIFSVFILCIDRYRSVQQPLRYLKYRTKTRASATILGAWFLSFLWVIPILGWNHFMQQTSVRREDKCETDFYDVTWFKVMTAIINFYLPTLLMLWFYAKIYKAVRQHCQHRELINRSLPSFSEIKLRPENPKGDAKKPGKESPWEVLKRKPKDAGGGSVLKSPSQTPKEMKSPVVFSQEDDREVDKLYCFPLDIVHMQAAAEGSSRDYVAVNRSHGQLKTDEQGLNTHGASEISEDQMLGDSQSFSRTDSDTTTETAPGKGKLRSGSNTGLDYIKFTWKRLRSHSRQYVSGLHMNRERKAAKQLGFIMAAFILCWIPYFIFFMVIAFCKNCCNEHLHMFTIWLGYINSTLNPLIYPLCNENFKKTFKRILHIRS
Sequence of Histamine H4 receptor (Q9H3N8 whole entry): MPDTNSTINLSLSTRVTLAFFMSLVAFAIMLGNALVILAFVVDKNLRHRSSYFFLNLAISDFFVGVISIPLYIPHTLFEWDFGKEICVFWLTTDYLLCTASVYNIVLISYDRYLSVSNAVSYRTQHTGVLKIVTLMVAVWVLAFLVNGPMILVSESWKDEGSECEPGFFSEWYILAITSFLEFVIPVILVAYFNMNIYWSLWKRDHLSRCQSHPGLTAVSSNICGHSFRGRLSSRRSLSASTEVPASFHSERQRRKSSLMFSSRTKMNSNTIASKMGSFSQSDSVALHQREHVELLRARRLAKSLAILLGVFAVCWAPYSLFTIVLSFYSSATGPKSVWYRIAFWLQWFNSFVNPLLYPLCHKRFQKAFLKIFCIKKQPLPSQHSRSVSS
Sequence of Sodium-dependent dopamine transporter (Q01959 whole entry): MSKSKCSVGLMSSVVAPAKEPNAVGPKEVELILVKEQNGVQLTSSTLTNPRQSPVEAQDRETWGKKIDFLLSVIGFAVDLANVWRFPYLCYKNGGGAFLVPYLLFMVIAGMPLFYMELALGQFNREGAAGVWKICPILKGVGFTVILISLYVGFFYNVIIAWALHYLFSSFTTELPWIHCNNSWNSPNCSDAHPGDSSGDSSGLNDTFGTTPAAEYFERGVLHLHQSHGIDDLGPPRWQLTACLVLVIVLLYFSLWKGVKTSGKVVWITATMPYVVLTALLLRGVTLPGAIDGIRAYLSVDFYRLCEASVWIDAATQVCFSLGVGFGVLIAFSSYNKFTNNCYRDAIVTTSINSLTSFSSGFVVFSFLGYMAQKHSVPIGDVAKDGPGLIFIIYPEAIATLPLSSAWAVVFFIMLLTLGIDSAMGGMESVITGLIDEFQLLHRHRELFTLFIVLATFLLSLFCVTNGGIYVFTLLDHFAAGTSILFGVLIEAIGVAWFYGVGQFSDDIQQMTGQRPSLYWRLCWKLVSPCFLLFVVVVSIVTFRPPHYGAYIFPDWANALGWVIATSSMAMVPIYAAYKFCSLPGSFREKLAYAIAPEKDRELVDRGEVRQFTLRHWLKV
Sequence of Histamine H2 receptor (P25021 whole entry): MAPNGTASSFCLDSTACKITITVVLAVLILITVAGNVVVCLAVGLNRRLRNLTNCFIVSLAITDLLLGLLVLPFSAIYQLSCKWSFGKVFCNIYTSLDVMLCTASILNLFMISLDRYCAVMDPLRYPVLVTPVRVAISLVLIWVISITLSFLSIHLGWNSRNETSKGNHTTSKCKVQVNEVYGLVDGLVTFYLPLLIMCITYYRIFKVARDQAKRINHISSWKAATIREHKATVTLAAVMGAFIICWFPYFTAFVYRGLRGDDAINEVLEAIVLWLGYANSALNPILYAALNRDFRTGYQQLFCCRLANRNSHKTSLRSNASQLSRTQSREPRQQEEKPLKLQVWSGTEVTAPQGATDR

O=C1NN=C(c2ccc(OCCCN3CCCCC3)cc2)C2CC12 (racemic)
Ki [1]: 19 nM
Ki [2]: 54 nM

C[C@@H]1CCCN1CCCOc1ccc(C2=NNC(=O)C3CC23)cc1 (stereo not given in full)
Ki [1]: 3.7 nM
Ki [2]: 13 nM
half-life [3]: > 40 min
half-life [4]: > 40 min
half-life [5]: > 40 min
half-life [6]: > 40 min
half-life [7]: > 40 min
IC50 [8]: > 30000 nM
bioavailability [9]: > 25%
half-life [10]: 84 min
clearance [11]: 11 mL/min/kg

C[C@@H]1CCCN1CCCOc1ccc(C2=NNC(=O)[C@@H]3C[C@H]23)cc1
Ki [1]: 3.1 nM
Ki [2]: 9.9 nM
half-life [3]: > 40 min
half-life [4]: > 40 min
half-life [6]: > 40 min
half-life [7]: > 40 min
IC50 [8]: > 30000 nM
Ki [12]: > 10000 nM
Ki [13]: > 10000 nM
Ki [14]: > 10000 nM
Ki [15]: 10200 nM
Ki [16]: 1500 nM
solubility [17]: > 4000 µg/mL
solubility [18]: > 4000 µg/mL
Papp [19]: 17.5 ×10⁻⁶ cm/s
fraction unbound [20]: 0.19
fraction unbound [21]: 0.4
fraction unbound [22]: 0.55
half-life [23]: 66 min
Vd [24]: 0.9 L/kg
clearance [25]: 9.6 mL/min/kg
AUC(0-t) [26]: 5760 ng·h/mL
Cmax [27]: 810 ng/mL
bioavailability [28]: 34%
Kp at 2 h [29]: 2
half-life [30]: 192 min
Vd [31]: 3.7 L/kg
AUCt [32]: 4205 ng·h/mL
Cmax [33]: 664 ng/mL
F [34]: 115%
Kp at 2 h [35]: 2.1
half-life [36]: 462 min
Vd [37]: 4 L/kg
clearance [38]: 6 mL/min/kg
AUC(0-t) [39]: 9570 ng·h/mL
Cmax [40]: 764 ng/mL
bioavailability [41]: 136%
Activity [42]: Dose-dependent effect
ED50 [42]: 0.14 mg/kg
Activity [43]: Dose-dependent effect
AUC [44]: 128 min
AUC [45]: 233 min
Time [46]: 197 min
Activity [47]: inactive
Activity [48]: Non-toxic
Activity [49]: Non-toxic
EC50 [50]: 0.7 nM
AUC [51]: 158 min

C[C@H]1CCCN1CCCOc1ccc(C2=NNC(=O)C3CC23)cc1 (mixture of isomers)
Ki [1]: 13 nM
Ki [2]: 57 nM

C[C@@H]1CCCN1CCCOc1ccc(C2=NNC(=O)[C@H]3C[C@@H]23)cc1
Ki [1]: 4.5 nM
Ki [2]: 14 nM
half-life [3]: > 40 min
half-life [4]: > 40 min
half-life [6]: > 40 min
half-life [7]: > 40 min
IC50 [8]: > 30000 nM
Ki [12]: > 10000 nM
Ki [13]: > 10000 nM
Ki [14]: > 10000 nM
Ki [15]: 6600 nM
Ki [16]: 1800 nM
solubility [17]: > 4000 µg/mL
solubility [18]: > 4000 µg/mL
Papp [19]: 15.7 ×10⁻⁶ cm/s
fraction unbound [20]: 0.46
fraction unbound [21]: 0.47
fraction unbound [22]: 0.39
half-life [23]: 84 min
Vd [24]: 2.5 L/kg
clearance [25]: 20 mL/min/kg
AUC(0-t) [26]: 4660 ng·h/mL
Cmax [27]: 738 ng/mL
bioavailability [28]: 46%
Kp at 2 h [29]: 3.1
Activity [42]: Dose-dependent effect
ED50 [42]: 0.21 mg/kg
AUC [44]: 134 min
AUC [45]: 231 min
Activity [48]: Non-toxic
Activity [49]: Non-toxic
Time [52]: 85 min
Time [53]: 106 min
Time [54]: 130 min
EC50 [50]: 0.6 nM
AUC [51]: 192 min
AUC [55]: 221 min
